Assays:
[1] = tested on: persian speedwell; test: Test Example 5: herbicidal effect by foliage application, plastic box (Table 20, symbol R); format: in vivo, Persian speedwell (Veronica persica); details: foliage application, 320 g/ha, three weeks after application
How it was run: (§1)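 Sow seeds spot-wise in sterilized diluvial soil; cover with ~1.5 cm soil. Grow 14 days in greenhouse, 25° C. to 30° C. Spray foliage with emulsion diluted to predetermined amount. Rate effect after 3 weeks.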

[2] = tested on: Italian ryegrass; test: Test Example 4: herbicidal effect by soil treatment (Table 19, symbol K); format: in vivo, Italian ryegrass (Lolium multiflorum); details: amount of applied herbicide 320 g/ha
How it was run: (§2)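 Applied as a water-diluted emulsion, the compound was sprayed onto soil covering newly sown seeds. Evaluation came three weeks after application, in a greenhouse held at 25° C. to 30° C.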

[3] = tested on: wild oat; test: Test Example 5: herbicidal effect by foliage application, plastic box (Table 20, symbol I); format: in vivo, wild oat (Avena fatua); details: foliage application, 320 g/ha, three weeks after application
How it was run: as §1

[4] = tested on: redroot pigweed; test: Test Example 4: herbicidal effect by soil treatment (Table 19, symbol N); format: in vivo, redroot pigweed (Amaranthus retroflexus); details: amount of applied herbicide 320 g/ha
How it was run: as §2

[5] = tested on: persian speedwell; test: Test Example 4: herbicidal effect by soil treatment (Table 19, symbol R); format: in vivo, Persian speedwell (Veronica persica); details: amount of applied herbicide 320 g/ha
How it was run: as §2

[6] = tested on: windgrass; test: Test Example 4: herbicidal effect by soil treatment (Table 19, symbol L); format: in vivo, windgrass (Apera spica-venti); details: amount of applied herbicide 320 g/ha
How it was run: as §2

[7] = tested on: redroot pigweed; test: Test Example 5: herbicidal effect by foliage application, plastic box (Table 20, symbol N); format: in vivo, redroot pigweed (Amaranthus retroflexus); details: foliage application, 320 g/ha, three weeks after application
How it was run: as §1

[8] = tested on: Italian ryegrass; test: Test Example 5: herbicidal effect by foliage application, plastic box (Table 20, symbol K); format: in vivo, Italian ryegrass (Lolium multiflorum); details: foliage application, 320 g/ha, three weeks after application
How it was run: as §1

[9] = tested on: velvetleaf; test: Test Example 5: herbicidal effect by foliage application, plastic box (Table 20, symbol M); format: in vivo, velvetleaf (Abutilon theophrasti); details: foliage application, 320 g/ha, three weeks after application
How it was run: as §1

[10] = tested on: late watergrass; test: Test Example 1: herbicidal activity, application before weed generation under submerged conditions (Table 16, symbol A); format: in vivo, late watergrass (Echinochloa oryzicola); details: amount of applied herbicide 320 g/ha
How it was run: (§3)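 Emulsion formulation, water-diluted to set dose, was put onto the flooded surface (4 cm depth, alluvial soil) the same day weeds were sown and 2.5-leaf rice transplanted. After 3 weeks at 25-30 °C under glass, each species was rated 0 (≤5% kill) to 5 (≥90% kill).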

[11] = tested on: chickweed; test: Test Example 5: herbicidal effect by foliage application, plastic box (Table 20, symbol P); format: in vivo, common chickweed (Stellaria media); details: foliage application, 320 g/ha, three weeks after application
How it was run: as §1

[12] = tested on: lambsquarters; test: Test Example 5: herbicidal effect by foliage application, plastic box (Table 20, symbol O); format: in vivo, lambsquarters (Chenopodium album); details: foliage application, 320 g/ha, three weeks after application
How it was run: as §1

[13] = tested on: barnyard grass; test: Test Example 5: herbicidal effect by foliage application, plastic box (Table 20, symbol H); format: in vivo, barnyard grass (Echinochloa crus-galli); details: foliage application, 320 g/ha, three weeks after application
How it was run: as §1

[14] = tested on: barnyard grass; test: Test Example 4: herbicidal effect by soil treatment (Table 19, symbol H); format: in vivo, barnyard grass (Echinochloa crus-galli); details: amount of applied herbicide 320 g/ha
How it was run: as §2

[15] = tested on: lambsquarters; test: Test Example 4: herbicidal effect by soil treatment (Table 19, symbol O); format: in vivo, lambsquarters (Chenopodium album); details: amount of applied herbicide 320 g/ha
How it was run: as §2

[16] = tested on: chickweed; test: Test Example 4: herbicidal effect by soil treatment (Table 19, symbol P); format: in vivo, common chickweed (Stellaria media); details: amount of applied herbicide 320 g/ha
How it was run: as §2

[17] = tested on: rice flat sedge; test: Test Example 3: herbicidal effect by foliage application, Wagner pot (Table 18, symbol E); format: in vivo, rice flat sedge (Cyperus iria); details: 320 g/ha
How it was run: (§4)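 Plants were sown in alluvial soil held under 0.1–0.5 cm standing water and grown 14 days in a greenhouse at 25–30 °C. An emulsifiable formulation, water-diluted to the set dose, was then sprayed onto the foliage, and effects were scored three weeks later using previously defined criteria.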

[18] = tested on: windgrass; test: Test Example 5: herbicidal effect by foliage application, plastic box (Table 20, symbol L); format: in vivo, windgrass (Apera spica-venti); details: foliage application, 320 g/ha, three weeks after application
How it was run: as §1

[19] = tested on: velvetleaf; test: Test Example 4: herbicidal effect by soil treatment (Table 19, symbol M); format: in vivo, velvetleaf (Abutilon theophrasti); details: amount of applied herbicide 320 g/ha
How it was run: as §2

[20] = tested on: Japanese bulrush; test: Test Example 1: herbicidal activity, application before weed generation under submerged conditions (Table 16, symbol B); format: in vivo, Japanese bulrush (Schoenoplectus juncoides); details: amount of applied herbicide 320 g/ha
How it was run: as §3

[21] = tested on: green foxtail; test: Test Example 4: herbicidal effect by soil treatment (Table 19, symbol G); format: in vivo, green foxtail (Setaria viridis); details: amount of applied herbicide 320 g/ha
How it was run: as §2

[22] = tested on: false cleavers; test: Test Example 4: herbicidal effect by soil treatment (Table 19, symbol Q); format: in vivo, false cleavers (Galium spurium); details: amount of applied herbicide 320 g/ha
How it was run: as §2

[23] = tested on: southern crabgrass; test: Test Example 5: herbicidal effect by foliage application, plastic box (Table 20, symbol F); format: in vivo, southern crabgrass (Digitaria ciliaris); details: foliage application, 320 g/ha, three weeks after application
How it was run: as §1

[24] = tested on: blackgrass; test: Test Example 5: herbicidal effect by foliage application, plastic box (Table 20, symbol J); format: in vivo, blackgrass (Alopecurus myosuroides); details: foliage application, 320 g/ha, three weeks after application
How it was run: as §1

[25] = tested on: Chinese sprangletop; test: Test Example 3: herbicidal effect by foliage application, Wagner pot (Table 18, symbol D); format: in vivo, chinese sprangletop (Leptochloa chinensis); details: 320 g/ha
How it was run: as §4

[26] = tested on: wild oat; test: Test Example 4: herbicidal effect by soil treatment (Table 19, symbol I); format: in vivo, wild oat (Avena fatua); details: amount of applied herbicide 320 g/ha
How it was run: as §2

[27] = tested on: false cleavers; test: Test Example 5: herbicidal effect by foliage application, plastic box (Table 20, symbol Q); format: in vivo, false cleavers (Galium spurium); details: foliage application, 320 g/ha, three weeks after application
How it was run: as §1

[28] = tested on: blackgrass; test: Test Example 4: herbicidal effect by soil treatment (Table 19, symbol J); format: in vivo, blackgrass (Alopecurus myosuroides); details: amount of applied herbicide 320 g/ha
How it was run: as §2

[29] = tested on: southern crabgrass; test: Test Example 4: herbicidal effect by soil treatment (Table 19, symbol F); format: in vivo, southern crabgrass (Digitaria ciliaris); details: amount of applied herbicide 320 g/ha
How it was run: as §2

[30] = tested on: oval-leafed pondweed; test: Test Example 1: herbicidal activity, application before weed generation under submerged conditions (Table 16, symbol C); format: in vivo, oval-leafed pondweed (Monochoria vaginalis); details: amount of applied herbicide 320 g/ha
How it was run: as §3

[31] = tested on: green foxtail; test: Test Example 5: herbicidal effect by foliage application, plastic box (Table 20, symbol G); format: in vivo, green foxtail (Setaria viridis); details: foliage application, 320 g/ha, three weeks after application
How it was run: as §1

[32] = tested on: barnyard grass; test: Test Example 3: herbicidal effect by foliage application, Wagner pot (Table 18, symbol H); format: in vivo, barnyard grass (Echinochloa crus-galli); details: 320 g/ha
How it was run: as §4

## CCn1nc(C)c(O)c(-c2c(-c3ccccc3OC)sc3cc(OC)ccc23)c1=O [3-084]
[1]
  R: persian speedwell, herbicidal effect grade: 5 (Herbicidal rate of 90% or more (almost completely withered))
[2]
  K: Italian ryegrass, herbicidal effect grade: 1 (Herbicidal rate of 5% or more and less than 20%)
[3]
  I: wild oat, herbicidal effect grade: 3 (Herbicidal rate of 40% or more and less than 70%)
[4]
  N: redroot pigweed, herbicidal effect grade: 4 (Herbicidal rate of 70% or more and less than 90%)
[5]
  R: persian speedwell, herbicidal effect grade: 4 (Herbicidal rate of 70% or more and less than 90%)
[6]
  L: windgrass, herbicidal effect grade: 0 (Herbicidal rate of 5% or less (almost no effect))
[7]
  N: redroot pigweed, herbicidal effect grade: 5 (Herbicidal rate of 90% or more (almost completely withered))
[8]
  K: Italian ryegrass, herbicidal effect grade: 1 (Herbicidal rate of 5% or more and less than 20%)
[9]
  M: velvetleaf, herbicidal effect grade: 4 (Herbicidal rate of 70% or more and less than 90%)
[10]
  Herbicidal effect, A: late watergrass: 0 (Herbicidal rate of 5% or less (almost no effect))
[11]
  P: chickweed, herbicidal effect grade: 5 (Herbicidal rate of 90% or more (almost completely withered))
[12]
  O: lambsquarters, herbicidal effect grade: 3 (Herbicidal rate of 40% or more and less than 70%)
[13]
  H: barnyard grass, herbicidal effect grade: 3 (Herbicidal rate of 40% or more and less than 70%)
[14]
  H: barnyard grass, herbicidal effect grade: 0 (Herbicidal rate of 5% or less (almost no effect))
[15]
  O: lambsquarters, herbicidal effect grade: 2 (Herbicidal rate of 20% or more and less than 40%)
[16]
  P: chickweed, herbicidal effect grade: 4 (Herbicidal rate of 70% or more and less than 90%)
[17]
  herbicidal effect on rice flat sedge (E): 3 (Herbicidal rate of 40% or more and less than 70%)
[18]
  L: windgrass, herbicidal effect grade: 3 (Herbicidal rate of 40% or more and less than 70%)
[19]
  M: velvetleaf, herbicidal effect grade: 0 (Herbicidal rate of 5% or less (almost no effect))
[20]
  Herbicidal effect, B: Japanese bulrush: 3 (Herbicidal rate of 40% or more and less than 70%)
[21]
  G: green foxtail, herbicidal effect grade: 0 (Herbicidal rate of 5% or less (almost no effect))
[22]
  Q: false cleavers, herbicidal effect grade: 3 (Herbicidal rate of 40% or more and less than 70%)
[23]
  F: southern crabgrass, herbicidal effect grade: 3 (Herbicidal rate of 40% or more and less than 70%)
[24]
  J: blackgrass, herbicidal effect grade: 4 (Herbicidal rate of 70% or more and less than 90%)
[25]
  herbicidal effect on Chinese sprangletop (D): 0 (Herbicidal rate of 5% or less (almost no effect))
[26]
  I: wild oat, herbicidal effect grade: 2 (Herbicidal rate of 20% or more and less than 40%)
[27]
  Q: false cleavers, herbicidal effect grade: 5 (Herbicidal rate of 90% or more (almost completely withered))
[28]
  J: blackgrass, herbicidal effect grade: 0 (Herbicidal rate of 5% or less (almost no effect))
[29]
  F: southern crabgrass, herbicidal effect grade: 0 (Herbicidal rate of 5% or less (almost no effect))
[30]
  Herbicidal effect, C: oval-leafed pondweed: 1 (Herbicidal rate of 5% or more and less than 20%)
[31]
  G: green foxtail, herbicidal effect grade: 3 (Herbicidal rate of 40% or more and less than 70%)
[32]
  herbicidal effect on barnyard grass (H): 5 (Herbicidal rate of 90% or more (almost completely withered))
